US20100093811A1 (priority 2007, published 2010)
Read-outs that look alike come from different tables or passages of the source.

Legend:
[1] = system: acute HIV infection of T-lymphoid cells; test: Assay for inhibition of HIV replication (spread assay); assay type: cell-based, HIV-1
Experimental: • Assay for Inhibition of HIV Replication
Assays for the inhibition of acute HIV infection of T-lymphoid cells were conducted in accordance with Vacca, J. P. et al., Proc. Natl. Acad. Sci. USA 1994, 91: 4096.

wild-type HIV-1 protease = wild-type HIV-1 protease (Human immunodeficiency virus type 1 group M subtype B, UniProt P04585); test: Assay for inhibition of microbial expressed HIV protease; assay type: biochemical; details: wild-type HIV-1 protease expressed in E. coli, peptide substrate, pH 5.5; read-out: Enzyme Inhibition - IC50
Experimental: Assay for Inhibition of Microbial Expressed HIV Protease
Inhibition studies of the reaction of the protease (which was expressed in Eschericia coli) with a peptide substrate [Val-Ser-Gln-Asn-(betanapthyl)Ala-Pro-Ile-Val]. The inhibitor is first preincubated with the enzyme in assay buffer (50 mM sodium acetate, pH 5.5, 100 mM NaCl, and 0.1% BSA) for 30 minutes at room temperature. Substrate is added to 440 micromolar in a total volume of 80 microliters containing 5 picomolar HIV-1 protease, and the reaction is incubated for 1 hour at 30° C. The reaction is quenched by addition of 120 microliters of 10% phosphoric acid, and product formation is determined after separation of product and substrate on a Vydac C18 column connected to an Alliance high performance liquid chromatography system (Waters Corporation). The extent of inhibition of the reaction is determined from the peak area of the products.

[2] = Human immunodeficiency virus 1, T-lymphoid, read-out: Spread - IC95
[3] = inhibition of HIV-1 replication, 10% FBS, read-out: Spread - IC95

SMILES | IC95 [1, 2] [nM] | IC50 (wild-type HIV-1 protease) [nM] | IC95 [1, 3] [nM] | IC95 ([1]; Human immunodeficiency virus 1, T-lymphoid, read-out: Spread - IC95 (nM)) [nM]
CC(C)CCN([C@@H](CCCCNC(=O)[C@@H](N)C(c1ccccc1)c1ccccc1)C(C)O)S(=O)(=O)c1ccc(N)cc1 (mixture of isomers) [Example A1, (2S)-2-amino-N-{5-[[(4-aminophenyl)sulfonyl]-(3-methylbutyl)amino]-6-hydroxyheptyl}-3,3-diphenylpropanamide] | 140 | 0.43 |  | 
CCC(CCC[C@@H](CO)N(CCC(C)C)S(=O)(=O)c1ccc(N)cc1)NC(=O)[C@H](C(c1ccccc1)c1ccccc1)N(C)C(=O)OC (mixture of isomers) [Example F12, N{(5S)-5-[[(4-aminophenyl)sulfonyl](3-methylbutyl)amino]-1-ethyl-6-hydroxyhexyl}-Nα-(methoxycarbonyl)-Nα-methyl-β-phenyl-L-phenylalaninamide] | 325 | 2.11 |  | 
COC(=O)N[C@H](C(=O)N[C@H](C)CCC[C@@H](CO)N(CCC(C)C)S(=O)(=O)c1ccc(N)cc1)C(c1ccccc1)c1ccccc1 (single isomer, unassigned) [D1(S)] | 7 | 0.008 |  | 
COC(=O)N[C@H](C(=O)NC(CO)CCCC(CO)N(CCC(C)C)S(=O)(=O)c1ccc(N)cc1)C(c1ccccc1)c1ccccc1 (single isomer, unassigned) [Example M1-7A, N-[(1R or 1S,5R or 5S)-5-[[(4-aminophenyl)sulfonyl](3-methylbutyl)amino]-6-hydroxy-1-(hydroxymethyl)hexyl]-Nα-(methoxycarbonyl)-β-phenyl-L-phenylalaninamide] | 302 | 0.349 |  | 
COC(=O)N[C@H](C(=O)NC(CO)CCCC(CO)N(CCC(C)C)S(=O)(=O)c1ccc(N)cc1)C(c1ccccc1)c1ccccc1 (single isomer, unassigned) [Example M1-7B, N-[(1R or 1S, 5R or 5S)-5-[[(4-aminophenyl)sulfonyl](3-methylbutyl)amino]-6-hydroxy-1-(hydroxymethyl)hexyl]-Nα-(methoxycarbonyl)-β-phenyl-L-phenylalaninamide] |  | 0.013 | 230 | 
COC(=O)N[C@H](C(=O)N[C@@H](C)CCC[C@@H](CO)N(CCC(C)C)S(=O)(=O)c1ccc(N)cc1)C(c1ccccc1)c1ccccc1 [D1(R), N-{(1S,5S)-5-[[(4-aminohenyl)sulfonyl](3-methylbutyl)amino]-6-hydroxy-1-methylhexyl}-Nα-(methoxycarbonyl)-β-phenyl-L-phenylalaninamide] |  | 0.386 | 98 | 
COC(=O)N[C@H](C(=O)NCCCC[C@@H](CN)N(CCC(C)C)S(=O)(=O)c1ccc(N)cc1)C(c1ccccc1)c1ccccc1 [Example A2, Methyl [(1S)-2-({6-amino-5-[[(4-aminophenyl)sulfonyl](3-methylbutyl)amino]-hexyl)amino)-1-(diphenylmethyl)-2-oxoethyl]carbamate] | 252 | 5 |  | 
Cc1ccc(S(=O)(=O)N(CCC(C)C)[C@H](CO)CC(C)CCNC(=O)[C@@H](N)C(c2ccccc2)c2ccccc2)cc1 (stereo partly drawn) [Example B1, (2S)-2-amino-N-((5S)-6-hydroxy-3-methyl-5-{(3-methylbutyl)[(4-methylphenyl)-sulfonyl]amino}hexyl)-3,3-diphenylpropanamide] | 500 | 0.51 |  | 
COC(=O)N[C@H](C(=O)NCCC(C)C[C@@H](CO)N(CCC(C)C)S(=O)(=O)c1ccc(C)cc1)C(c1ccccc1)c1ccccc1 (stereo partly drawn) [Example B2] |  | 0.52 | 368 | 
CC[C@@H](CCC[C@@H](CO)N(CCC(C)C)S(=O)(=O)c1ccc(N)cc1)NC(=O)[C@@H](NC(=O)OC)C(c1ccccc1)c1ccccc1 [Example D2] |  | 0.016 |  | 10
CC[C@@H](CCC[C@@H](CO)N(CCC(C)C)S(=O)(=O)c1ccc(N)c(F)c1)NC(=O)[C@@H](NC(=O)OC)C(c1ccccc1)c1ccccc1 [Example D3, N-{(1S,5S)-5-[[(4-amino-3-fluorophenyl)sulfonyl](3-methylbutyl)amino]-1-ethyl-6-hydroxyhexyl}-Nα-(methoxycarbonyl)-b-phenyl-L-phenylalaninamide] | 12 | 0.054 |  | 
COC(=O)N[C@@H](Cc1ccccc1Cl)C(=O)N[C@@H](C)CCC[C@@H](CN)N(CCC(C)C)S(=O)(=O)c1ccc(N)cc1 [Example D4, N-{(1S,5S)-6-amino-5-[[(4-aminophenyl)sulfonyl](3-methylbutyl)amino]-1-methylhexyl}-2-chloro-Nα-(methoxycarbonyl)-L-phenylalaninamide] | 270 | > 3 |  | 
COC(=O)N[C@H](C(=O)N[C@@H](C)CCC[C@@H](CO)N(CCC(C)C)S(=O)(=O)c1ccc2ncsc2c1)C(c1ccccc1)c1ccccc1 [Example D5, N-{(1S,5S)-5-[(1,3-benzothiazol-6-ylsulfonyl)(3-methylbutyl)amino]-6-hydroxy-1-methylhexyl}-Nα-(methoxycarbonyl)-β-phenyl-L-phenylalaninamide] | 9 | 0.042 |  | 
CCC[C@@H](CCC[C@@H](CO)N(CCC(C)C)S(=O)(=O)c1ccc(N)cc1)NC(=O)[C@@H](NC(=O)OC)C(c1ccccc1)c1ccccc1 [Example D6, N-{(1S,5S)-5-[[(4-aminophenyl)sulfonyl](3-methylbutyl)amino]-6-hydroxy-1-propylhexyl}-Nα-(methoxycarbonyl)-β-phenyl-L-phenylalaninamide] | 56 | 0.106 |  | 
COC(=O)N[C@@H](Cc1ccccc1Cl)C(=O)N[C@@H](C)CCC[C@@H](CO)N(CCC(C)C)S(=O)(=O)c1ccc(N)cc1 [Example D7, N-{(1S,5S)-5-[[(4-aminophenyl)sulfonyl](3-methylbutyl)amino]-6-hydroxy-1-methylhexyl}-2-chloro-Nα-(methoxycarbonyl)-L-phenylalaninamide] | 19 | 0.064 |  | 
COC(=O)N[C@@H](Cc1ccccc1Cl)C(=O)N[C@@H](C)CCC[C@@H](CO)N(CC(C)C)S(=O)(=O)c1ccc(N)cc1 [Example D8, N-{(1S,5S)-5-[[(4-aminophenyl)sulfonyl](isobutyl)amino]-6-hydroxy-1-methylhexyl}-2-chloro-Nα-(methoxycarbonyl)-L-phenylalaninamide] | 46 | 0.327 |  | 
COC(=O)N[C@H](C(=O)N[C@@H](C)CCC[C@@H](CO)N(CC(C)C)S(=O)(=O)c1ccc(N)cc1)C(c1ccccc1)c1ccccc1 [Example D9, N-{(1S,5S)-5-[[(4-aminophenyl)sulfonyl](isobutyl)amino]-6-hydroxy-1-methylhexyl}-Nα-(methoxycarbonyl)-β-phenyl-L-phenylalaninamide] | 8 | 0.035 |  | 
COC(=O)N[C@H](C(=O)N[C@H](CCC[C@@H](CO)N(CCC(C)C)S(=O)(=O)c1ccc(N)cc1)C(C)C)C(c1ccccc1)c1ccccc1 [Example D10, N-{(1R,5S)-5-[[(4-aminophenyl)sulfonyl](3-methylbutyl)amino]-6-hydroxy-1-isopropylhexyl}-Nα-(methoxycarbonyl)-β-phenyl-L-phenylalaninamide] | 37 | 0.099 |  | 
CC[C@@H](CCC[C@@H](CO)N(CC(C)C)S(=O)(=O)c1ccc(N)cc1)NC(=O)[C@@H](NC(=O)OC)C(c1ccccc1)c1ccccc1 [Example D11, N-{(1S,5S)-5-[[(4-aminophenyl)sulfonyl](isobutyl)amino]-1-ethyl-6-hydroxyhexyl}-Nα-(methoxycarbonyl)-β-phenyl-L-phenylalaninamide] | 18 | 0.109 |  | 
COC(=O)N[C@H](C(=O)N[C@@H](C)CCC[C@@H](CO)N(CCC(C)C)S(=O)(=O)c1ccc(N)c(F)c1)C(c1ccccc1)c1ccccc1 [Example D12, N-{(1S,5S)-5-[[(4-amino-3-fluorophenyl)sulfonyl](3-methylbutyl)amino]-6-hydroxy-1-methylhexyl}-Nα-(methoxycarbonyl)-β-phenyl-L-phenylalaninamide] | 6 | 0.012 |  | 
CCC[C@@H](CCC[C@@H](CO)N(CCCF)S(=O)(=O)c1ccc(N)cc1)NC(=O)[C@@H](NC(=O)OC)C(c1ccccc1)c1ccccc1 [Example D13, N-{(1S,5S)-5-[[(4-aminophenyl)sulfonyl](3-fluoropropyl)amino]-6-hydroxy-1-propylhexyl}-Nα-(methoxycarbonyl)-β-phenyl-L-phenylalaninamide] | 213 | 0.867 |  | 
COC(=O)N[C@H](C(=O)N[C@H](CCC[C@@H](CO)N(CC(C)C)S(=O)(=O)c1ccc(N)cc1)C(C)C)C(c1ccccc1)c1ccccc1 [Example D14, N-{(1R,5S)-5-[[(4-aminophenyl)sulfonyl](isobutyl)amino]-6-hydroxy-1-isopropylhexyl}-Nα-(methoxycarbonyl)-β-phenyl-L-phenylalaninamide] | 95 | 0.519 |  | 
COC(=O)N[C@H](C(=O)N[C@@H](C)CCC[C@@H](CO)N(C(C)C)S(=O)(=O)c1ccc(N)cc1)C(c1ccccc1)c1ccccc1 [Example F1, N-{(1S,5S)-5-[[(4-aminophenyl)sulfonyl](isopropyl)amino]-6-hydroxy-1-methylhexyl}-Nα-(methoxycarbonyl)-β-phenyl-L-phenylalaninamide] | 32 |  |  | 
